What was measured:
DCs [1] = assay: DC activation and cytokine expression by flow cytometry; format: cell-based, C57BL/6j mice; conditions: for CD86 expression in CD11c+ cells: equivalent amount as PaKG MPs, vs no treatment control and PaKG MP condition
Description: Briefly, femur and tibia from mice were isolated and kept in wash media composed of DMEM/F-12 (1:1) with L-glutamine, 10% fetal bovine and 1% penicillin-streptomycin. The ends of the bones were cut, and bone marrow was flushed out with 10 mL wash media and mixed to make a homogeneous suspension. Red blood cells were lysed by incubating and resuspending the pellet in 3 mL 1× red blood cell (RBC) lysis buffer for 3 minutes at 4° C. The cell suspension was then washed twice with wash media and re-suspended in DMEM/F-12 with L-glutamine, 10% fetal bovine serum, 1% sodium pyruvate, 1% non-essential amino acids (VWR, Radnor, Pa.), 1% penicillin-streptomycin and 20 ng/ml GM-CSF (DC media). All % values shown here are vol/vol. This cell suspension was then seeded in a tissue culture-treated T-75 flask (day 0). After 48 hours (day 2), floating cells were collected, centrifuged, re-suspended in fresh media and seeded on low attachment plates for 6 additional days. Half of the media was changed every alternate day. At the end of 6 days (day 8), cells were lifted from the low attachment wells by gentle pipetting, re-suspended and seeded on tissue culture-treated polystyrene plates for 2 more days before treating them. […] Purity, yield, and immaturity of DCs (CD11c, MHC-II and CD86) were verified via immunofluorescence staining and flow cytometry. Dendritic cells were isolated from at least 3 separate mice for each experiment.

DCs [2] = assay: Seahorse Assay (ECAR and OCR)
Description: Lipopolysaccharide (LPS) was used as a positive control, and no treatment was used as a negative control.
Sequential injections were performed with D-glucose (10 mM), oligomycin (1 mM), and 2-deoxyglucose (100 mmol/L). The extracellular acidification rates (ECAR) after the injection of D-glucose was a measure of glycolysis, and the ECAR after the injection of oligomycin represented maximal glycolytic capacity. Non-glycolytic activity was quantified by the measure of ECAR after the injection of 2-deoxyglucose. Samples were analyzed with 10 technical replicates.
For oxidative phosphorylation, 24 hours after cell seeding, media was changed to unbuffered DMEM containing 2 mM glutamine, 1 mM pyruvate, and 10 mM glucose. […] The oxygen consumption rate (OCR) after the injection of oligomycin was a measure of ATP-linked respiration and the OCR after the injection of FCCP represented maximal respiratory capacity. Basal respiration was quantified by the measure of OCR prior to the injection of oligomycin. Samples were analyzed with 10 technical replicates.

Compound | CD86 expression in CD11c+ cells (DCs [1]) | glycolysis levels compared to PaKG MPs (DCs [2]; DCs) | glycolysis (DCs [2]; vs no treatment control (PaKG MPs also vs LPS)) | frequency of MHC-II+CD86+ in DCs (DCs [1]; vs untreated immature DCs)
OCCCCCCCCCCO [1,10-decanediol] | did not significantly change | – | – | –
O=C(O)CCC(=O)C(=O)O [soluble aKG, alpha-ketoglutarate] | did not significantly change | higher | decreased | –
Lipopolysaccharide [LPS] | – | – | – | significantly upregulated

Source: patent US20220226499A1, “Metabolite Delivery for Modulating Metabolic Pathways of Cells” (Arizona Board of Regents on Behalf of Arizona State …, priority 2019, published 2022)
